Data set [1] deals with T1, Chemerin-like receptor 1 (Homo sapiens, UniProt Q99788).
T1 sequence (Q99788 whole entry): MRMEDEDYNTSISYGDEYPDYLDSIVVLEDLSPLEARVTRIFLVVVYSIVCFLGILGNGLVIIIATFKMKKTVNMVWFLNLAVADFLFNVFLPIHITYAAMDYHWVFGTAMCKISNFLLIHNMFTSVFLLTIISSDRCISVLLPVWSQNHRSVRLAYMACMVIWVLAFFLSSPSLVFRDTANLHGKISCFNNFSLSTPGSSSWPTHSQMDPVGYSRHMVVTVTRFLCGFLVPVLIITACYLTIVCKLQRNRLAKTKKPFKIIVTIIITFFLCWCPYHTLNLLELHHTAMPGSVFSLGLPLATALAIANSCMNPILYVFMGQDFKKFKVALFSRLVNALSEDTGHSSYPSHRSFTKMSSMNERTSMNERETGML
Kind of data set: Antagonist activity at human CMKLR1.

Data set [2] has as its target T1, Chemerin-like receptor 1. The data set is described as follows: Antagonist activity at human CMKLR1 expressed in CHO-K1 cells co-expressing Galpha-16 assessed as change in intracellular calcium concentration incubated for 30 mins in presence of chemerin-9 by FLIPR calcium 5 assay. Format: functional, cell-based. For orientation: A change in cytosolic calcium serves as a functional read-out for many receptors and channels.

Data set [3] in a line: Toxicity in imiquimod-induced BALB/c mouse psoriasis model assessed as change in body weight at 30 mg/kg, po qd administered for 7 days. It is filed as organism-based. The conditions noted are these: in vivo, 168 h, time 7 day.
Data set [4] can be described thus: Cmax in C57BL6 mouse at 30 mg/kg, po measured upto 24 hrs by LC-MS/MS analysis. It is filed as ADME, organism-based. Details: dose 30 mg/kg, time < 24 hrs, route po. As to conditions: in vivo.
The nature of data set [5]: Tmax in C57BL6 mouse at 30 mg/kg, po measured upto 24 hrs by LC-MS/MS analysis. Format: ADME, organism-based. The conditions noted are these: in vivo.
Data set [6] can be described thus: AUClast in C57BL6 mouse at 30 mg/kg, po measured upto 24 hrs by LC-MS/MS analysis. Format: ADME, organism-based. Details: dose 30 mg/kg, time < 24 hrs, route po. As to conditions: in vivo.
The nature of data set [7]: Cmax in C57BL6 mouse at 10 mg/kg, po measured upto 24 hrs by LC-MS/MS analysis. Format: ADME, organism-based. Details: dose 10 mg/kg, time < 24 hrs, route po. The conditions noted are these: in vivo.
Data set [8] can be described thus: AUClast in C57BL6 mouse at 10 mg/kg, po measured upto 24 hrs by LC-MS/MS analysis. Format: ADME, organism-based. On the set-up: dose 10 mg/kg, time < 24 hrs, route po. The conditions noted are these: in vivo.
Data set [9] is described as follows: Tmax in C57BL6 mouse at 10 mg/kg, po measured upto 24 hrs by LC-MS/MS analysis. It is filed as ADME, organism-based. As to conditions: in vivo.
Data set [10] is described as follows: Toxicity in imiquimod-induced BALB/c mouse psoriasis model assessed as change in body weight at 0.4 mg/kg, po qd administered for 7 days. The conditions noted are these: in vivo, 168 h, time 7 day. It is filed as organism-based.
Data set [11] has as its system Mus musculus. The data set is described as follows: Antiinflammatory activity against imiquimod-induced BALB/c mouse psoriasis model assessed as reduction in epidermal proliferation in mouse back skin at 0.4 mg/kg, po qd administered for 7 days by hematoxylin and eosin staining based analysis. As to conditions: time 7.0 day. Format: functional, organism-based.

Structures are written as SMILES. Calls of active or inactive are those of the source. The calls are words filed in the database; no cut-off is given here.

One may read the IC50 as the concentration that inhibits the measured activity by half. As for `CC(C)n1nc(-c2ccccc2)c2ccc(COc3ccc([C@@H](C)CC(=O)O)cc3)cc21`, in data set [1], the 50% inhibitory concentration (IC50) was 5.75 µM. For the compound `C[C@@H](CC(=O)O)c1ccc(OCc2ccc3c(-c4cc(Cl)c(O)c(Cl)c4)nn(C4CCCC4)c3c2)cc1`, the IC50 in data set [2] is 141 nM. As to `C[C@@H](CC(=O)O)c1ccc(OCc2ccc3c(-c4ccc(O)c(O)c4)nn(C4CCCC4)c3c2)cc1`, the IC50 in data set [2] is 2090 nM.

For the compound `C[C@@H](CC(=O)O)c1ccc(OCc2ccc3c(-c4cc(F)c(CO)c(F)c4)nn(C4CCCC4)c3c2)cc1`, the IC50 in data set [2] is 53.7 nM.

As to `C[C@@H](CC(=O)O)c1ccc(OCc2cc(F)c3c(-c4cc(Cl)c(O)c(Cl)c4)nn(C4CCCC4)c3c2)cc1`, the IC50 in data set [2] was 19.1 nM. A word on the Cmax: it is the peak of the concentration-time curve. The Tmax is the time from dosing to the highest level. By AUC(0-t) is commonly meant exposure summed from dosing to a finite time, without extrapolation to infinity. Low values mean low exposure, high ones high exposure. As for `C[C@@H](CC(=O)O)c1ccc(OCc2cc(F)c3c(-c4cc(Cl)c(CO)c(Cl)c4)nn(C4CCCC4)c3c2)cc1`, in [3], the Activity entry is reported as “Non-Toxic”. The compound also showed a Cmax in [4] of 7900 ng/mL. For the same compound, the Tmax in [5] was determined as 2 h. In data set [6], the AUC(0-t) at 24 h is 64100 ng·h/mL. As to `C[C@@H](CC(=O)O)c1ccc(OCc2ccc3c(-c4cc(Cl)c(O)cc4Cl)nn(C4CCCC4)c3c2)cc1`, the IC50 in data set [2] was 525 nM. The same measure, in the same setting: the value for `C[C@@H](CC(=O)O)c1ccc(OCc2ccc3c(-c4ccc(O)c([N+](=O)[O-])c4)nn(C4CCCC4)c3c2)cc1` was 1700 nM; that for `C[C@@H](CC(=O)O)c1ccc(OCc2ccc3c(-c4ccc(O)cc4Cl)nn(C4CCCC4)c3c2)cc1` was 676 nM; that for `C[C@@H](CC(=O)O)c1ccc(OCc2ccc3c(-c4cc(F)c(O)cc4F)nn(C4CCCC4)c3c2)cc1` was 513 nM. `CC(CC(=O)O)c1ccc(OCc2ccc3c(-c4ccc(Cl)cc4)nn(C4CCCC4)c3c2)cc1` (racemic): the IC50 in [2] is 2290 nM. Same read-out and setting: as for `Cc1ccc(-c2nn(C3CCCC3)c3cc(COc4ccc(C(C)CC(=O)O)cc4)ccc23)cc1` (racemic), the figure is 2340 nM. `CC(CC(=O)O)c1ccc(OCc2ccc3c(-c4cc(Cl)c(CO)c(Cl)c4)nn(C4CCCC4)c3c2)cc1` (racemic) registered a Cmax in data set [7] of 2600 ng/mL. The same compound had an AUC(0-t) at 24 h in [8] of 11700 ng·h/mL. In data set [9], the Tmax is 30 min. As for `COc1ccc(-c2nn(C3CCCC3)c3cc(COc4ccc(C(C)CC(=O)O)cc4)ccc23)cc1` (racemic), the IC50 in data set [2] is 1100 nM.

`CC(CC(=O)O)c1ccc(OCc2ccc3c(-c4cccc(O)c4)nn(C4CCCC4)c3c2)cc1` (racemic): the IC50 in [2] was 2570 nM. As to `CC(CC(=O)O)c1ccc(OCc2ccc3c(-c4cc(Cl)c(O)c(Cl)c4)nn(C4CCCC4)c3c2)cc1` (racemic), the IC50 in data set [2] was 309 nM. The same compound gave a Cmax in data set [7] of 225 ng/mL. Further, the AUC(0-t) at 24 h in data set [8] was 823 ng·h/mL. The Tmax in data set [9] turned out to be 30 min. `CN(Cc1cnc2nc(N)nc(N)c2n1)c1ccc(C(=O)N[C@@H](CCC(=O)O)C(=O)O)cc1` [METHOTREXATE]: the Activity result in data set [10] was “Non-Toxic”. Moreover, in data set [11], the outcome was Active. A word on the EC50: it is the concentration that produces a half-maximal response. Higher therefore signals lower potency in that assay. Consider `CC[C@@H](O)/C=C/C=C\C[C@@H](O)/C=C/C=C/C=C\[C@@H](O)CCCC(=O)O` [RESOLVIN E1], for which the EC50 in data set [1] is 1 nM. This counts as single-digit nanomolar.

The values above are taken from ChEMBL document CHEMBL5370654, “Discovery of 3-Phenyl Indazole-Based Novel Chemokine-like Receptor 1 Antagonists for the Treatment of Psoriasis” (J Med Chem, 2023).
